Data taken from US4760078A, “Immunomodulator 1,2-dithiol-3-thione derivative composition, use method and process of producing the same” (priority 1986, dated 1988).
Like-named read-outs stand apart in the source and are kept apart here.

Experiments:
[1] = system: mouse spleen cells; test: Action against blast formation reaction of mouse spleen cells (ConA-induced DNA synthesis, 3H-thymidine intake); assay type: cell-based, BALB/C mouse; conditions: ConA 2 μg/ml, read-out: Activity (relative activity, 3H-thymidine intake, control = 100)
[2] = system: mouse spleen cells; test: as above; assay type: cell-based, BALB/C mouse; conditions: Experiment 1, 10^-4 M, ConA 2 μg/ml, read-out: Activity (relative activity, 3H-thymidine intake, control = 100)
Method: Action Against Blast Formation Reaction of Mouse Spleen Cells The action of the compound of the present invention against the DNA synthesis of mouse spleen cells, which synthesis is induced by Concanavalin A (hereinafter referred to as ConA for short) was examined. 1×10^5 spleen cells of BALB/C mouse (female, 10 weeks old) were incubated with 2 μg/ml of ConA and 10^-6, 10^-5, or 10^-4 M of the compound of the present invention in RPMI 1640 medium containing 10% […] at 37° C. in an atmosphere containing 5% CO2 for 48 hours. Subsequently, ^3 H-thymidine was added to the culture and then the culture was incubated for another 18 hours. The incubated cells were collected with a harvester and the intake of ^3 H-thymidine by the cells was determined using a scintillation counter. The activity in the table is relative activity when the activity of the control is 100.

[3] = system: spleen cells producing anti-SRBC antibody; test: Antibody production-promoting action (PFC number against SRBC, Jerne's method); assay type: in vivo, ICR mice; conditions: oral, twice (day of immunization and next day), 3 days after immunization
Method: Antibody Production-Promoting Action
The action of the compound of the present invention with respect to the antibody production of mouse against sheep red blood cells (SRBC) was examined.
To tail veins of ICR mice (female, 7 weeks old, 4 mice in each group), 5×10^7 SRBC were injected to immunize the mice. The compound of the present invention suspended in 0.5% methyl cellulose solution was orally administered twice to the mice on the day of immunization and on the next day. Three days after immunization, the number of spleen cells producing anti-SRBC antibody (PFC number) was checked by Jerne's method (Science Vol. 140, p. 405 (1963)).
In Table 2, the activity is the relative PFC number when the PFC number of the control is 100.

[4] = system: rat EAE; test: Action against experimental allergic encephalomyelitis (EAE) of rats; assay type: in vivo, Lewis rat; conditions: subcutaneous, 8 times; for Survival Rate: 50 days after inoculation, control 6/8; for Crisis Day (Mean): control 9.1 ± 0.6; for Clin. Score (Mean): score 0 to 5, control 1.0 ± 0.4, * p < 0.01
[5] = cited from earlier work
[6] = system: immune system; conditions: published by the inventors, Pharmaceutical Society of Japan 1984; cited from earlier work
[7] = system: mice; test: Acute toxicity (oral); assay type: in vivo, ddY mice; conditions: 300 mg/kg, 6 mice per group
Description: Oral toxicity of the compound of the present invention was examined using mice.
The compound of the present invention was suspended in 0.5% solution of methyl cellulose and the suspension was orally administered to ddY mice (male, 7 weeks old, 6 mice per group). The conditions of the mice were observed and the number of deaths in 14 days from administration was checked.

## Cc1ccc(C=CC=Cc2cc(=S)ss2)cc1 [Compound 5, 5-{4-(p-toluyl)-1,3-butadienyl}-1,2-dithiol-3-thione]
[1]; Experiment 2, 10^-5 M
  activity at 10 µM: 228%
[1]; Experiment 2, 10^-6 M
  activity at 1 µM: 130%

## COc1ccc(C=CC=Cc2cc(=S)ss2)cc1 [Compound 3, 5-{4-(4-methoxyphenyl)-1,3-butadienyl}-1,2-dithiol-3-thione]
[2]
  activity at 100 µM: 291%
[1]; Experiment 1, 10^-5 M
  activity at 10 µM: 338%
[1]; Experiment 1, 10^-6 M
  activity at 1 µM: 175%
[3]; 0.4 mg/kg
  Activity (relative PFC number, control = 100): 117
[3]; 2.0 mg/kg
  Activity (relative PFC number, control = 100): 186

## S=c1cc(C=CC=Cc2ccccc2)ss1 [Compound 1, 5-(4-phenyl-1,3-butadienyl)-1,2-dithiol-3-thione]
[4]; 0.3 mg/kg/d
  Survival Rate: 8/8
  Crisis Day (Mean): 10.5 ± 0.9
  Clin. Score (Mean): 0.3 ± 0.1
[4]; 3 mg/kg/d
  Survival Rate: 8/8
  Crisis Day (Mean): 10.3 ± 0.7
  Clin. Score (Mean): 0.2 ± 0.1
[2]
  activity at 100 µM: 196%
[1]; Experiment 1, 10^-5 M
  activity at 10 µM: 281%
[1]; Experiment 1, 10^-6 M
  activity at 1 µM: 250%
[3]; 0.4 mg/kg
  Activity (relative PFC number, control = 100): 258
[3]; 2.0 mg/kg
  Activity (relative PFC number, control = 100): 149

## c1ccc([C@H]2CN3CCSC3=N2)cc1 [levamisole]
[5]; clinical use, reported
  side effects: vomiturition, eruption and hemotoxicity
[5]; disappears upon stopping the administration
  most serious side effect: granulocytopenia

## O=C(O)CCCCC1CCSS1 (racemic) [Lipoic Acid, DL-thioctic acid, reference compound]
[6]
  immunomodulating effect: excellent immunomodulating effect
[2]
  activity at 100 µM: 234%
[1]; Experiment 1, 10^-5 M
  activity at 10 µM: 146%
[1]; Experiment 1, 10^-6 M
  activity at 1 µM: 142%
[1]; Experiment 2, 10^-5 M
  activity at 10 µM: 159%
[1]; Experiment 2, 10^-6 M
  activity at 1 µM: 95%
[7]
  number of deaths in 14 days from administration: one mouse in 6 mice died
